The values below are quoted from earlier work in patent US20240035023A1, “COMPUTER IMPLEMENTED METHOD FOR E[…] FOR SYNTHESIS OF FL[…]” (Kcat Enzymatic Private Limited, priority 2022, published 2024).

Each structure is given as a SMILES string.

For this data set, the target named is fluorinase (Streptantibioticus cattleyicolor, UniProt Q70GK9).

On to `Nc1ncnc2c1ncn2[C@@H]1O[C@H](CSCC[C@H](N)C(=O)O)[C@@H](O)[C@H]1O` [S-adenosyl-homocysteine], for which the “enzyme activity against the substrate” value is “no activity”.
